Test results published in patent publication US7357930B1, “Methods and formulations for targeting infectious agents bearing host cell proteins” (Infectio Recherche Inc., priority 1999, dated 2008).
Read-outs that look alike come from different tables or passages of the source.

Experiments:
Mono Mac 1 cell line = assay: Toxicity in Mono Mac 1 cells; assay type: cell-based; conditions: data not shown
[1] = tested on: HIV-1-based luciferase reporter viruses with HXB2, AML-V or VSV-G env; assay type: cell-based
1G5 cells = assay: Cellular viability / toxicity in 1G5 cells; assay type: cell-based; conditions: 72 h, concentration range tested (0-10 μg/ml), data not shown
HIV-1NL4-3 = assay: AmB inhibition of HIV-1NL4-3 replication in 1G5 cells (luciferase activity)
Procedure: In a second set of experiments, AmB and the virus were added simultaneously to cells and incubation was made during the first two hours of infection (open square).
Infection was monitored by measuring the luciferase activity. […] Thereafter, an aliquot of this cell lysate (20 μl) was mixed with 100 μl of luciferase assay buffer and activity was evaluated using a microplate luminometer.

Structure (SMILES): C[C@@H]1[C@H](O)[C@@H](C)/C=C/C=C/C=C/C=C/C=C/C=C/C=C/[C@H](O[C@@H]2O[C@H](C)[C@@H](O)[C@H](N)[C@@H]2O)C[C@@H]2O[C@](O)(C[C@@H](O)C[C@@H](O)[C@H](O)CC[C@@H](O)C[C@@H](O)CC(=O)O[C@H]1C)C[C@H](O)[C@H]2C(=O)O [AmB, amphotericin B]
- toxicity (Mono Mac 1 cell line): without significant toxicity
- inhibition of infection with pseudotyped virions [1]: efficient to inhibit infection
- cellular viability (1G5 cells): did not affect the cellular viability
- concentration giving complete inhibition of HIV-1NL4-3 replication (HIV-1NL4-3; 1G5 cells pretreated with AmB): 10 μg AmB/ml
- inhibition of viral replication (HIV-1NL4-3; AmB added to infected cells after adsorption, 10 μg AmB/ml, 72 h): 40%
- concentration giving complete abrogation of viral replication (HIV-1NL4-3; cell-free virus pretreated 1 h at 37° C.): 5 μg AmB/ml
- viral particles inactivated (HIV-1NL4-3; cell-free virus pretreated 1 h at 37° C. with 1 μg AmB/ml): About 50%
- concentration giving complete inhibition of HIV-1 replication (HIV-1NL4-3; virus and AmB added simultaneously to cells (no pretreatment)): 10 μg AmB/ml

Structure (SMILES): CC(C)(C)NC(=O)[C@@H]1CN(Cc2cccnc2)CCN1C[C@@H](O)C[C@@H](Cc1ccccc1)C(=O)N[C@H]1c2ccccc2C[C@H]1O [Free indinavir, indinavir]
- Area under the curve of indinavir (Brachial lymph nodes): 4.9 μmoles lipids/g tissues/h
- Area under the curve of indinavir (Cervical lymph nodes): 7.6 μmoles lipids/g tissues/h
- Area under the curve of indinavir (Inguinal lymph nodes): 4.1 μmoles lipids/g tissues/h
- Area under the curve of indinavir (Liver): 35.0 μmoles lipids/g tissues/h
- Area under the curve of indinavir (Mesenteric lymph nodes): 6.4 μmoles lipids/g tissues/h
- Area under the curve of indinavir (Plasma): 2.3 μmoles lipids/g tissues/h
- Area under the curve of indinavir (Popliteal lymph nodes): 4.5 μmoles lipids/g tissues/h
- Area under the curve of indinavir (Spleen): 5.3 μmoles lipids/g tissues/h
- drug levels in lymphoid tissues (all lymphoid tissues): very low drug levels
